# US20090239846A1, “Novel Compounds” (Glaxo Group Limited, priority 2005, published 2009)
# Entries after “also recorded” stand apart in the source; their conditions may differ.
# System: influx of neutrophils to the lung in LPS-challenged rats
# Test: Rat LPS neutrophilia model
# Assay type: in vivo
# Conditions: LPS aerosol, lavage 4 hours later, in at least one of the range of conditions tested, significance p<0.05
# Experimental: The effect of compounds on the influx of neutrophils to the lung in LPS-challenged rats is evaluated as follows. The test compound is suspended in one of the following solutions: 0.5% tween 80/PBS, 0.5% tween 80/saline, 10% EtOH/saline (with pH adjusted to 2.0, or 8.0 with HCl, or unadjusted), Saline (pH 2.0, 6.5 or 8.0, 0.5% Tragacanth, 1% DMSO/20% Encapsin/Saline, or acidified 5% Tragacanth. The suspension process may be aided by the use of a glass homogenizer. For intratracheal administration, the animals are anesthetized with inhaled isoflurane and placed in a supine position, the trachea is intubated with a steel gavage needle (1.5 inch, 22 gauge, small ball) or a Penn-Century Microsprayer Aerosolizer (model IA-LB) and 200 ul of dosing solution is delivered. The animals are visually monitored during the recovery process, which typically occurs within two minutes.
# Rats treated with compound or vehicle (15 min-24 hours pretreatment) are exposed to an LPS aerosol (100 ug/ml) for 15 min. Four hours later the rats are euthanized with pentobarbital (100 mg/kg, i.p.) and the airways are lavaged with 5 washes of 5 ml of phosphate buffered saline. The harvested cells are stained (Diffquick) and counted to determine total and differential cell data. In a typical study, macrophages represent 40-70% of the total cells, and polymorphonuclear cells 30-60% of the total cells. Inhibition of neutrophil levels relative to no compound controls is calculated based on the differential counts.
# The assay has varying conditions, such as concentration, pretreat time, form of the compound (crystalline, amorphous, salts, micronised), and a wet or dry application of the compound.
# The data is obtained as % inhibition using a particular concentration and pretreat time.
row,SMILES,inhibition of neutrophilia
1,"Cc1ccc(C(=O)NC(C)C)cc1-c1nc(NCCN(C)C)nc2c1CNC(=O)N2c1c(F)cccc1F [Example 37, 3-(8-(2,6-difluorophenyl)-2-{[2-(dimethylamino)ethyl]amino}-7-oxo-5,6,7,8-tetrahydropyrimido[4,5-d]pyrimidin-4-yl)-4-methyl-N-(1-methylethyl)benzamide]",statistically nonsignificant inhibition of neutrophilia
2,"Cc1ccc(C(=O)Nc2ccc(F)cc2)cc1-c1nc(NC2CCN(C)CC2)nc2c1CNC(=O)N2c1c(F)cccc1F [Example 39, 3-{8-(2,6-difluorophenyl)-2-[(1-methyl-4-piperidinyl)amino]-7-oxo-5,6,7,8-tetrahydropyrimido[4,5-d]pyrimidin-4-yl}-N-(4-fluorophenyl)-4-methylbenzamide]",statistically nonsignificant inhibition of neutrophilia
3,"Cc1ccc(C(=O)NC(C)C)cc1-c1nc(NCCCN(C)C)nc2c1CNC(=O)N2c1c(F)cccc1F [Example 40, 3-(8-(2,6-difluorophenyl)-2-{[3-(dimethylamino)propyl]amino}-7-oxo-5,6,7,8-tetrahydropyrimido[4,5-d]pyrimidin-4-yl)-4-methyl-N-(1-methylethyl)benzamide]",statistically significant inhibition of neutrophilia
4,"Cc1ccc(C(=O)Nc2ccc(F)cc2)cc1-c1nc(NCCCN(C)C)nc2c1CNC(=O)N2c1c(F)cccc1F [Example 42, 3-(8-(2,6-difluorophenyl)-2-{[3-(dimethylamino)propyl]amino}-7-oxo-5,6,7,8-tetrahydropyrimido[4,5-d]pyrimidin-4-yl)-N-(4-fluorophenyl)-4-methylbenzamide]",statistically significant inhibition of neutrophilia
5,"CCN(CC)CCCNc1nc(-c2cc(C(=O)Nc3ccc(F)cc3)ccc2C)c2c(n1)N(c1c(F)cccc1F)C(=O)NC2 [Example 43, 3-[2-{[3-(diethylamino)propyl]amino}-8-(2,6-difluorophenyl)-7-oxo-5,6,7,8-tetrahydropyrimido[4,5-d]pyrimidin-4-yl]-N-(4-fluorophenyl)-4-methylbenzamide]",inactive
6,"CCCNC(=O)c1ccc(C)c(-c2nc(N(C)CCCN(C)C)nc3c2CNC(=O)N3c2c(F)cccc2F)c1 [Example 53, 3-{8-(2,6-difluorophenyl)-2-[[3-(dimethylamino)propyl](methyl)amino]-7-oxo-5,6,7,8-tetrahydropyrimido[4,5-d]pyrimidin-4-yl}-4-methyl-N-propylbenzamide]",statistically nonsignificant inhibition of neutrophilia
7,"Cc1ccc(C(=O)NC(C)C)cc1-c1nc(N2CCC(N3CCCCC3)CC2)nc2c1CNC(=O)N2c1c(F)cccc1F [Example 57, 3-[2-(1,4′-bipiperidin-1′-yl)-8-(2,6-difluorophenyl)-7-oxo-5,6,7,8-tetrahydropyrimido[4,5-d]pyrimidin-4-yl]-4-methyl-N-(1-methylethyl)benzamide]",statistically nonsignificant inhibition of neutrophilia
8,"Cc1ccc(C(=O)NC(C)C)cc1-c1nc(N2CCC(N3CCCC3)CC2)nc2c1CNC(=O)N2c1c(F)cccc1F [Example 60, 3-{8-(2,6-difluorophenyl)-7-oxo-2-[4-(1-pyrrolidinyl)-1-piperidinyl]-5,6,7,8-tetrahydropyrimido[4,5-d]pyrimidin-4-yl}-4-methyl-N-(1-methylethyl)benzamide]",statistically nonsignificant inhibition of neutrophilia; also recorded: inactive
9,"Cc1ccc(C(=O)NC(C)C)cc1-c1nc(N2CCC(N3CCC(C)CC3)CC2)nc2c1CNC(=O)N2c1c(F)cccc1F [Example 70, 3-[8-(2,6-difluorophenyl)-2-(4-methyl-1,4′-bipiperidin-1′-yl)-7-oxo-5,6,7,8-tetrahydropyrimido[4,5-d]pyrimidin-4-yl]-4-methyl-N-(1-methylethyl)benzamide]",statistically significant inhibition of neutrophilia
10,CN(C)CCNc1nc(-c2cccc(C(=O)Nc3ccccc3)c2)c2c(n1)N(c1c(F)cccc1F)C(=O)NC2 [Example 91],statistically significant inhibition of neutrophilia
